# Test results published in PubChem BioAssay (NCI).
#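 Tested at 5 concentrations; 48 h exposure; 96-well plates; endpoints linearly interpolated, else capped at highest concentration. The concentration for 50% growth inhibition is given as GI50. TGI: total growth inhibition.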
# How the values were obtained:
# Test in all cases: growth of human tumour cells (NCI), 48 h
# 786-0 renal = test system: 786-0 renal
# A498 renal = test system: A498 renal
# A549 NSCLC = test system: A549 NSCLC
# ACHN renal = test system: ACHN renal
# BT-549 breast = test system: BT-549 breast
# CAKI-1 renal = test system: CAKI-1 renal
# CCRF-CEM leukemia = test system: CCRF-CEM leukemia
# COLO 205 colon = test system: COLO 205 colon
# DU-145 prostate = test system: DU-145 prostate
# EKVX NSCLC = test system: EKVX NSCLC
# HCC-2998 colon = test system: HCC-2998 colon
# HCT-116 colon = test system: HCT-116 colon
# HL-60(TB) leukemia = test system: HL-60(TB) leukemia
# HOP-62 NSCLC = test system: HOP-62 NSCLC
# HOP-92 NSCLC = test system: HOP-92 NSCLC
# HS 578T breast = test system: HS 578T breast
# IGROV1 ovarian = test system: IGROV1 ovarian
# K-562 leukemia = test system: K-562 leukemia
# KM12 colon = test system: KM12 colon
# LOX IMVI melanoma = test system: LOX IMVI melanoma
# M14 melanoma = test system: M14 melanoma
# MCF7 breast = test system: MCF7 breast
# MDA-MB-231 breast = test system: MDA-MB-231 breast
# MDA-MB-435 = test system: MDA-MB-435
# MOLT-4 leukemia = test system: MOLT-4 leukemia
# NCI-H226 lung = test system: NCI-H226 lung
# NCI-H23 lung = test system: NCI-H23 lung
# NCI-H460 lung = test system: NCI-H460 lung
# NCI-H522 lung = test system: NCI-H522 lung
# NCI/ADR-RES ovarian = test system: NCI/ADR-RES ovarian
# OVCAR-3 ovarian = test system: OVCAR-3 ovarian
# OVCAR-4 ovarian = test system: OVCAR-4 ovarian
# OVCAR-5 ovarian = test system: OVCAR-5 ovarian
# OVCAR-8 ovarian = test system: OVCAR-8 ovarian
# PC-3 prostate = test system: PC-3 prostate
# RPMI-8226 leukemia = test system: RPMI-8226 leukemia
# RXF 393 renal = test system: RXF 393 renal
# SF-268 CNS = test system: SF-268 CNS
# SF-295 CNS = test system: SF-295 CNS
# SF-539 CNS = test system: SF-539 CNS
# SK-MEL-2 melanoma = test system: SK-MEL-2 melanoma
# SK-MEL-28 melanoma = test system: SK-MEL-28 melanoma
# SK-MEL-5 melanoma = test system: SK-MEL-5 melanoma
# SN12C renal = test system: SN12C renal
# SNB-19 CNS = test system: SNB-19 CNS
# SNB-75 CNS = test system: SNB-75 CNS
# SR leukemia = test system: SR leukemia
# SW-620 colon = test system: SW-620 colon
# T-47D breast = test system: T-47D breast
# TK-10 renal = test system: TK-10 renal
# UACC-257 melanoma = test system: UACC-257 melanoma
# UACC-62 melanoma = test system: UACC-62 melanoma
# UO-31 renal = test system: UO-31 renal
smiles,measurement,setting,value
CCOC(=O)/C=C/C1=C(c2csc3ccccc23)c2ccccc2CC1,GI50,786-0 renal,57 µM
same,TGI,786-0 renal,> 100 µM
same,GI50,A498 renal,55.4 µM
same,TGI,A498 renal,> 100 µM
same,GI50,A549 NSCLC,31.1 µM
same,TGI,A549 NSCLC,> 100 µM
same,GI50,ACHN renal,30.2 µM
same,TGI,ACHN renal,> 100 µM
same,GI50,BT-549 breast,99.3 µM
same,TGI,BT-549 breast,> 100 µM
same,GI50,CAKI-1 renal,14.8 µM
same,TGI,CAKI-1 renal,57.9 µM
same,GI50,CCRF-CEM leukemia,27.9 µM
same,TGI,CCRF-CEM leukemia,> 100 µM
same,GI50,COLO 205 colon,18.8 µM
same,TGI,COLO 205 colon,53.9 µM
same,GI50,DU-145 prostate,54.9 µM
same,TGI,DU-145 prostate,> 100 µM
same,GI50,EKVX NSCLC,54.2 µM
same,TGI,EKVX NSCLC,> 100 µM
same,GI50,HCC-2998 colon,55.5 µM
same,TGI,HCC-2998 colon,> 100 µM
same,GI50,HCT-116 colon,24.6 µM
same,TGI,HCT-116 colon,70.9 µM
same,GI50,HL-60(TB) leukemia,32.4 µM
same,TGI,HL-60(TB) leukemia,> 100 µM
same,GI50,HOP-62 NSCLC,41.6 µM
same,TGI,HOP-62 NSCLC,> 100 µM
same,GI50,HOP-92 NSCLC,48.6 µM
same,TGI,HOP-92 NSCLC,> 100 µM
same,GI50,HS 578T breast,52.7 µM
same,TGI,HS 578T breast,> 100 µM
same,GI50,IGROV1 ovarian,25.5 µM
same,TGI,IGROV1 ovarian,> 100 µM
same,GI50,K-562 leukemia,23.2 µM
same,TGI,K-562 leukemia,> 100 µM
same,GI50,KM12 colon,12.7 µM
same,TGI,KM12 colon,56.4 µM
same,GI50,LOX IMVI melanoma,30.6 µM
same,TGI,LOX IMVI melanoma,> 100 µM
same,GI50,M14 melanoma,29.7 µM
same,TGI,M14 melanoma,> 100 µM
same,GI50,MCF7 breast,66.3 µM
same,TGI,MCF7 breast,> 100 µM
same,GI50,MDA-MB-231 breast,34.9 µM
same,TGI,MDA-MB-231 breast,> 100 µM
same,GI50,MDA-MB-435,4.34 µM
same,TGI,MDA-MB-435,25.7 µM
same,GI50,MOLT-4 leukemia,32.2 µM
same,TGI,MOLT-4 leukemia,> 100 µM
same,GI50,NCI-H226 lung,> 100 µM
same,TGI,NCI-H226 lung,> 100 µM
same,GI50,NCI-H23 lung,> 100 µM
same,TGI,NCI-H23 lung,> 100 µM
same,GI50,NCI-H460 lung,37.5 µM
same,TGI,NCI-H460 lung,> 100 µM
same,GI50,NCI-H522 lung,27.6 µM
same,TGI,NCI-H522 lung,> 100 µM
same,GI50,NCI/ADR-RES ovarian,38.7 µM
same,TGI,NCI/ADR-RES ovarian,> 100 µM
same,GI50,OVCAR-3 ovarian,27.4 µM
same,TGI,OVCAR-3 ovarian,> 100 µM
same,GI50,OVCAR-4 ovarian,11.6 µM
same,TGI,OVCAR-4 ovarian,48.8 µM
same,GI50,OVCAR-5 ovarian,> 100 µM
same,TGI,OVCAR-5 ovarian,> 100 µM
same,GI50,OVCAR-8 ovarian,79 µM
same,TGI,OVCAR-8 ovarian,> 100 µM
same,GI50,PC-3 prostate,19.8 µM
same,TGI,PC-3 prostate,> 100 µM
same,GI50,RPMI-8226 leukemia,22.6 µM
same,TGI,RPMI-8226 leukemia,> 100 µM
same,GI50,RXF 393 renal,33.7 µM
same,TGI,RXF 393 renal,> 100 µM
same,GI50,SF-268 CNS,28.2 µM
same,TGI,SF-268 CNS,90 µM
same,GI50,SF-295 CNS,18.4 µM
same,TGI,SF-295 CNS,88.4 µM
same,GI50,SF-539 CNS,> 100 µM
same,TGI,SF-539 CNS,> 100 µM
same,GI50,SK-MEL-2 melanoma,> 100 µM
same,TGI,SK-MEL-2 melanoma,> 100 µM
same,GI50,SK-MEL-28 melanoma,32 µM
same,TGI,SK-MEL-28 melanoma,> 100 µM
same,GI50,SK-MEL-5 melanoma,28.5 µM
same,TGI,SK-MEL-5 melanoma,> 100 µM
same,GI50,SN12C renal,73.7 µM
same,TGI,SN12C renal,> 100 µM
same,GI50,SNB-19 CNS,21.3 µM
same,TGI,SNB-19 CNS,80.9 µM
same,GI50,SNB-75 CNS,15.2 µM
same,TGI,SNB-75 CNS,74.4 µM
same,GI50,SR leukemia,15.4 µM
same,TGI,SR leukemia,48.8 µM
same,GI50,SW-620 colon,31.8 µM
same,TGI,SW-620 colon,> 100 µM
same,GI50,T-47D breast,12.3 µM
same,TGI,T-47D breast,55.5 µM
same,GI50,TK-10 renal,16.6 µM
same,TGI,TK-10 renal,61.7 µM
same,GI50,UACC-257 melanoma,23.4 µM
same,TGI,UACC-257 melanoma,82.6 µM
same,GI50,UACC-62 melanoma,23.6 µM
same,TGI,UACC-62 melanoma,> 100 µM
same,GI50,UO-31 renal,58.1 µM
same,TGI,UO-31 renal,> 100 µM
